Like-named read-outs stand apart in the source and are kept apart here.
Columns and labels:
[1] = biological target: T1, PDGF-Ra (Homo sapiens, UniProt P16234); experiment: Inhibitory activity against PDGF-Ra phosphorylation by PDGF-AA stimulation using G292; type: cell-based; conditions: for IC50: > means inhibition at indicated concentration not more than 50%, < and << not less than 50%, read-out: PDGF (E) IC50; for inhibition at 0.1 µM: G292, at 100 nM, read-out: PDGF (E) inhibition (%) at 100 nM
T1 construct: host or cells: G-292 human osteosarcoma cells
T1 sequence (P16234 24-1089): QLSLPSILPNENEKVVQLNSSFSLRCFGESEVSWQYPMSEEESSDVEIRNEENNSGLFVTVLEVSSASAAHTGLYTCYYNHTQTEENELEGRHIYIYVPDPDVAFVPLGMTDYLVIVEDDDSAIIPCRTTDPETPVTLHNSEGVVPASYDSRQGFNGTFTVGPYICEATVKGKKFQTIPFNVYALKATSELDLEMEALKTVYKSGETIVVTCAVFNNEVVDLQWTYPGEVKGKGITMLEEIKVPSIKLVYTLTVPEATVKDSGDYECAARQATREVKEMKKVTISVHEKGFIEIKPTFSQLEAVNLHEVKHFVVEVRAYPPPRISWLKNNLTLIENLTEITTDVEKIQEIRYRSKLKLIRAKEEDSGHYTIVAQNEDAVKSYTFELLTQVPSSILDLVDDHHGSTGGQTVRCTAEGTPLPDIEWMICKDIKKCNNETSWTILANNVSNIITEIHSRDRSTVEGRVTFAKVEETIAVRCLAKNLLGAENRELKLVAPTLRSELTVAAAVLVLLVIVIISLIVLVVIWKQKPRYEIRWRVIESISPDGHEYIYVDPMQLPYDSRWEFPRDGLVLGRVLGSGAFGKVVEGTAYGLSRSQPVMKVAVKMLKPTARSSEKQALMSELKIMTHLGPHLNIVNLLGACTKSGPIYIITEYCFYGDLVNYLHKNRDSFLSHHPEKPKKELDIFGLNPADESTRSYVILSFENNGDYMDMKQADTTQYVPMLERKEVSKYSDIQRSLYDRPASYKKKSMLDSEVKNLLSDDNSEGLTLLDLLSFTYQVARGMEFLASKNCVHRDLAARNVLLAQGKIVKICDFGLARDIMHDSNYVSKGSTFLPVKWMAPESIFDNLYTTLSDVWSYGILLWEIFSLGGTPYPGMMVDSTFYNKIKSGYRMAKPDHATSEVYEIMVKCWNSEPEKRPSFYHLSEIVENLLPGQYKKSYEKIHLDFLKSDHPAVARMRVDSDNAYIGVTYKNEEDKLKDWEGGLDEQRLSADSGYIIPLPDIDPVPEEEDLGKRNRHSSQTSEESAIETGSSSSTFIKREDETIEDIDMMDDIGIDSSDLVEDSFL
Procedure, shortened: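 In G-292 osteosarcoma cells kept overnight in 0.1% FBS, compound exposure (1 hr, 37 °C) preceded PDGF-AA stimulation at 50 ng/ml for 5 min; receptor phosphotyrosine was then detected by PY-20 capture ELISA.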

[2] = biological target: T2, c-kit (Homo sapiens, UniProt P10721); experiment: Inhibitory activity against c-kit autophosphorylation (MO7e cells, h-SCF); type: cell-based; conditions: for IC50: MO7e cells, read-out: c-kit IC50; for inhibition at 1 µM: Mo7e, at 1000 nM
T2 construct: MO7e (human megakaryocytic leukemia cell line) which had been arrested for 20 hr; endogenous in cells; host or cells: MO7e human megakaryocytic leukemia cell line
T2 sequence (P10721 26-976): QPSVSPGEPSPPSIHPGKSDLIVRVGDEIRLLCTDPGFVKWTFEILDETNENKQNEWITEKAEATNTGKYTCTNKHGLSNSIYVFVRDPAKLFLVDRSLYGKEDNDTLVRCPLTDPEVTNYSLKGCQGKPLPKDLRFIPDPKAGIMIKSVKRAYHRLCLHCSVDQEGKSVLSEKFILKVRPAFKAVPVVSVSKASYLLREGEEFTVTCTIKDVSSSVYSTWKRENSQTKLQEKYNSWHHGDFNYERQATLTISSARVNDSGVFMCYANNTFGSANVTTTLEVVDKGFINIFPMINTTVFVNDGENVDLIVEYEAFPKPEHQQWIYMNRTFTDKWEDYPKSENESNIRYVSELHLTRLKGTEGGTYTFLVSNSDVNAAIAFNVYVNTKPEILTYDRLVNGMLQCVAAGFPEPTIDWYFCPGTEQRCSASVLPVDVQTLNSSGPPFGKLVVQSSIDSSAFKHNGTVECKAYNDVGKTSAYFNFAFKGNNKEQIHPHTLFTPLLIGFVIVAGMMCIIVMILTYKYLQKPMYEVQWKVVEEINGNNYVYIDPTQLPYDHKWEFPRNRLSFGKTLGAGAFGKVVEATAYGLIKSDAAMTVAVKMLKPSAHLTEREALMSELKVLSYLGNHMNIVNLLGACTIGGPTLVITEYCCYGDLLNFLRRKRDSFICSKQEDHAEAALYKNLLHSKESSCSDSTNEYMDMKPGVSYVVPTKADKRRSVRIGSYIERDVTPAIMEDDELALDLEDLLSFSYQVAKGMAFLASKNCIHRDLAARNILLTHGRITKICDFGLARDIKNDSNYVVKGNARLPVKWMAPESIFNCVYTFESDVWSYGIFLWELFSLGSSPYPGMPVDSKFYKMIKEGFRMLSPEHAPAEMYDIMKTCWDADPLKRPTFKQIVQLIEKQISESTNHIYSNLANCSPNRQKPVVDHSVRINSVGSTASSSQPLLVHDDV
Procedure, shortened: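 First, human megakaryocytic leukemia MO7e cells arrested 20 hr receive compound for one hour. Second, SCF stimulation (50 ng/ml) runs 5 min, after which cells are solubilized. Third, tyrosine-phosphorylated c-kit in the lysate is quantified by sandwich ELISA with absorbance at 450 nm.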

[3] = figure within parentheses in −( ) or >1000( )
[4] = figure within parentheses in >100( )

## COc1cc2ncnc(Oc3ccc(NC(=O)OC(C)c4cccc(F)c4)cc3)c2cc1OC (centres unmarked) [Example 100, 1-(3-Fluorophenyl)ethyl N-{4-[(6,7-dimethoxy-4-quinazolinyl)oxy]phenyl}carbamate]
[1]; Pharmacological Test Example 1
  IC50: 14 nM
[2]; h-SCF 50 ng/ml
  IC50: 815 nM

## COc1cc2nccc(Oc3ccc(NC(=O)OC4CCc5ccccc5C4)c(C)c3C)c2cc1OC (centres unmarked) [Example 293, 1,2,3,4-Tetrahydro-2-naphthalenyl N-{4-[(6,7-dimethoxy-4-quinolyl)oxy]-2,3-dimethylphenyl}carbamate]
[1]; Pharmacological Test Example 1
  IC50: < 10 nM
[2]; h-SCF 50 ng/ml
  IC50: 145 nM

## COc1cccc(OCCCOC(=O)Nc2ccc(Oc3ncnc4cc(OC)c(OC)cc34)cc2)c1 [Example 50, 3-(3-Methoxyphenoxy)propyl N-{4-[(6,7-dimethoxy-4-quinazolinyl)oxy]phenyl}carbamate]
[1]; Pharmacological Test Example 1
  IC50: < 10 nM
[2]; h-SCF 50 ng/ml
  IC50: 50 nM

## COc1cc2nccc(Oc3ccc(NC(=S)NC(=O)N4CCCC4)cc3)c2cc1OC [Example 1044, N-{4-[(6,7-Dimethoxy-4-quinolyl)oxy]phenyl}-N′-tetrahydro-1H-1-pyrrolylcarbonylthiourea]
[1]
  IC50: < 10 nM
[2]; h-SCF stimulation
  IC50: 136 nM

## COc1cc2nccc(Oc3ccc(NC(=S)NC(=O)Cc4ccccc4C)cc3Cl)c2cc1OC [Example 702, N-{3-Chloro-4-[(6,7-dimethoxy-4-quinolyl)oxy]phenyl}-N′-[2-(2-methylphenyl)acetyl]thiourea]
[1]
  IC50: < 10 nM
[2]; 50 ng/ml h-SCF
  IC50: 495 nM

## COc1cc2ncnc(Oc3ccc(NC(=O)OCC4CCCCCC4)c(Cl)c3)c2cc1OC [Example 352, Cycloheptylmethyl N-{2-chloro-4-[(6,7-dimethoxy-4-quinazolinyl)oxy]phenyl}carbamate]
[1]; Pharmacological Test Example 1
  IC50: < 10 nM
[2]; h-SCF 50 ng/ml
  IC50: 195 nM

## COc1cc2ncnc(Oc3ccc(NC(=O)OCc4ccc(C(C)(C)C)cc4)c(Cl)c3)c2cc1OC [Example 61, 4-(Tert-butyl)benzyl N-{2-chloro-4-[(6,7-dimethoxy-4-quinazolinyl)oxy]phenyl}carbamate]
[1]; Pharmacological Test Example 1
  IC50: 10 nM
[2]; figure in parentheses in −( )
  inhibition at 1 µM: 32%

## COc1cc2nccc(Oc3ccc(NC(=S)NC(=O)Cc4ccccc4F)cc3Cl)c2cc1OC [Example 730, N-{3-Chloro-4-[(6,7-dimethoxy-4-quinolyl)oxy]phenyl}-N′-[2-(2-fluorophenyl)acetyl]thiourea]
[1]
  IC50: 34 nM
[2]; 50 ng/ml h-SCF
  IC50: 634 nM

## COc1cc2nccc(Oc3ccc(NC(=O)OCCCCCCN(C)C)c(C)c3C)c2cc1OC [Example 311, 6-(Dimethylamino)hexyl N-{4-[(6,7-dimethoxy-4-quinolyl)oxy]-2,3-dimethylphenyl}carbamate]
[1]; Pharmacological Test Example 1
  IC50: < 10 nM
[2]; h-SCF 50 ng/ml
  IC50: 329 nM

## COc1cc2nccc(Oc3ccc(NC(=O)OCCc4cccc(C(F)(F)F)c4)cc3)c2cc1OC [Example 82, 3-(Trifluoromethyl)phenethyl N-{4-[(6,7-dimethoxy-4-quinolyl)oxy]phenyl}carbamate]
[1]; Pharmacological Test Example 1
  IC50: 10 nM
[2]; h-SCF 50 ng/ml
  IC50: 176 nM

## COc1cc2ncnc(Oc3ccc(NC(=O)OC4CCCCC4)c([N+](=O)[O-])c3)c2cc1OC [Example 503, Cyclohexyl N-{4-[(6,7-dimethoxy-4-quinazolinyl)oxy]-2-nitrophenyl}carbamate]
[1]
  IC50: 87 nM
[2]; [3]
  inhibition at 1 µM: 36%

## CCCc1ccc(C(=O)NC(=S)Nc2ccc(Oc3ccnc4cc(OC)c(OC)cc34)c(Cl)c2)cc1 [Example 1001, N-{3-Chloro-4-[(6,7-dimethoxy-4-quinolyl)oxy]phenyl}-N′-(4-propylbenzoyl)thiourea]
[1]
  IC50: < 10 nM
[2]; figure in parentheses in −( )
  inhibition at 1 µM: 34%

## COc1cc2ncnc(Oc3ccc(OCC(=O)N4CCc5ccccc5C4)cc3)c2cc1OC [Example 802, 2-{4-[(6,7-Dimethoxy-4-quinazolinyl)oxy]phenoxy}-1-(1,2,3,4-tetrahydro-2-isoquinolyl)-1-ethanone]
[1]
  IC50: < 10 nM
[2]; [3]
  inhibition at 1 µM: 42%

## CCCCCCOC(=O)Nc1ccc(Oc2ccnc3cc(OC)c(OC)cc23)cc1 [Example 256, Hexyl N-{4-[(6,7-dimethoxy-4-quinolyl)oxy]phenyl}carbamate]
[1]; Pharmacological Test Example 1
  IC50: < 3 nM
[2]; h-SCF 50 ng/ml
  IC50: 15 nM

## CCCC(CCN(CC)CC)OC(=O)Nc1ccc(Oc2ncnc3cc(OC)c(OC)cc23)cc1 (centres unmarked) [Example 444, 1-[2-(Diethylamino)ethyl]butyl N-{4-[(6,7-dimethoxy-4-quinazolinyl)oxy]phenyl}carbamate]
[1]
  IC50: 21 nM
[2]; 50 ng/ml h-SCF
  IC50: 972 nM

## COc1cc2nccc(Oc3ccc(NC(=O)NCCN(C)C)c(C)c3C)c2cc1OC [Example 626, N-{4-[(6,7-Dimethoxy-4-quinolyl)oxy]-2,3-dimethylphenyl}-N′-[2-(dimethylamino)ethyl]urea]
[1]
  IC50: 49 nM
[2]; 50 ng/ml h-SCF
  IC50: 339 nM

## COc1cc2ncnc(Oc3ccc(NC(=O)OCC4CCCCCC4)c([N+](=O)[O-])c3)c2cc1OC [Example 506, Cycloheptylmethyl N-{4-[(6,7-dimethoxy-4-quinazolinyl)oxy]-2-nitrophenyl}carbamate]
[1]
  IC50: 74 nM
[2]; 50 ng/ml h-SCF
  IC50: 369 nM

## COc1cc2ncnc(Oc3ccc(NC(=O)OC4CCCCC4)c(C)c3C)c2cc1OC [Example 391, Cyclohexyl N-{4-[(6,7-dimethoxy-4-quinazolinyl)oxy]-2,3-dimethylphenyl}carbamate]
[1]; Pharmacological Test Example 1
  IC50: 13 nM
[2]; h-SCF 50 ng/ml
  IC50: 129 nM

## COc1cc2nccc(Oc3ccc(NC(=O)OC(C)c4cccc(F)c4)c(C)c3C)c2cc1OC (centres unmarked) [Example 98, 1-(3-Fluorophenyl)ethyl N-{4-[(6,7-dimethoxy-4-quinolyl)oxy]-2,3-dimethylphenyl}carbamate]
[1]; Pharmacological Test Example 1
  IC50: < 10 nM
[2]; h-SCF 50 ng/ml
  IC50: 152 nM

## COc1cc2nccc(Oc3ccc(NC(=O)OCCCOc4ccccc4Cl)c(C)c3C)c2cc1OC [Example 17, 3-(2-Chlorophenoxy)propyl N-{4-[(6,7-dimethoxy-4-quinolyl)oxy]-2,3-dimethylphenyl}carbamate]
[1]; Pharmacological Test Example 1
  IC50: < 10 nM
[2]; h-SCF 50 ng/ml
  IC50: 57 nM

## COc1cc2nccc(Oc3cc(C)c(NC(=O)NCCN(C)C)cc3C)c2cc1OC [Example 625, N-{4-[(6,7-Dimethoxy-4-quinolyl)oxy]-2,5-dimethylphenyl}-N′-[2-(dimethylamino)ethyl]urea]
[1]
  IC50: > 100 nM
[1]; [4]
  inhibition at 0.1 µM: 31%
[2]; 50 ng/ml h-SCF
  IC50: 596 nM

## COc1cc2nccc(Oc3cc(C)c(NC(=O)OCCCCCCN(C)C)cc3C)c2cc1OC [Example 310, 6-(Dimethylamino)hexyl N-{4-[(6,7-dimethoxy-4-quinolyl)oxy]-2,5-dimethylphenyl}carbamate]
[1]; Pharmacological Test Example 1
  IC50: 67 nM
[2]; h-SCF 50 ng/ml
  IC50: 607 nM

## COc1cc2nccc(Oc3ccc(NC(=O)NC4CCN(Cc5ccccc5)CC4)c(C)c3C)c2cc1OC [Example 635, N-(1-Benzyl-4-piperidyl)-N′-{4-[(6,7-dimethoxy-4-quinolyl)oxy]-2,3-dimethylphenyl}urea]
[1]
  IC50: > 100 nM
[1]; [4]
  inhibition at 0.1 µM: 25%
[2]; [3]
  inhibition at 1 µM: 23%

## COc1cc2nccc(Oc3ccc(NC(=S)NC(=O)c4ccc(Br)s4)c(C)c3)c2cc1OC [Example 692, N-[(5-Bromo-2-thienyl)carbonyl]-N′-{4-[(6,7-dimethoxy-4-quinolyl)oxy]-2-methylphenyl}thiourea]
[1]
  IC50: > 100 nM
[1]; [4]
  inhibition at 0.1 µM: 35%
[2]; 50 ng/ml h-SCF
  IC50: > 1000 nM
[2]; [3]
  inhibition at 1 µM: 20%

## COc1cc2nccc(Oc3ccc(NC(=S)NC(=O)C(OC)c4ccccc4)cc3)c2cc1OC (centres unmarked) [Example 761, N-{4-[(6,7-Dimethoxy-4-quinolyl)oxy]phenyl}-N′-(2-methoxy-2-phenylacetyl)thiourea]
[1]
  IC50: > 100 nM
[1]; [4]
  inhibition at 0.1 µM: 37%
[2]; [3]
  inhibition at 1 µM: 44%

## COc1cc2ncnc(Oc3ccc(NC(=S)NC(=O)c4ccncc4)cc3)c2cc1OC [Example 1155, N-{4-[(6,7-Dimethoxy-4-quinazolinyl)oxy]phenyl}-N′-(4-pyridylcarbonyl)thiourea]
[1]
  IC50: 17 nM
[2]; figure in parentheses in −( )
  inhibition at 1 µM: 31%

## CCCCC(CCCC)OC(=O)Nc1ccc(Oc2ccnc3cc(OC)c(OC)cc23)cc1 [Example 368, 1-Butylpentyl N-{4-[(6,7-dimethoxy-4-quinolyl)oxy]phenyl}carbamate]
[1]; Pharmacological Test Example 1
  IC50: 64 nM
[2]; h-SCF 50 ng/ml
  IC50: 426 nM

## CCCC(CCC)OC(=O)N(C)c1ccc(Oc2ncnc3cc(OC)c(OC)cc23)cc1Cl [Example 481, 1-Propylbutyl N-{2-chloro-4-[(6,7-dimethoxy-4-quinazolinyl)oxy]phenyl}-N-methylcarbamate]
[1]
  IC50: 16 nM
[2]; [3]
  inhibition at 1 µM: 3%

## COc1cc2nccc(Oc3ccc(NC(=S)NC(=O)COc4ccccc4)cc3)c2cc1OC [Example 737, N-{4-[(6,7-Dimethoxy-4-quinolyl)oxy]phenyl}-N′-(2-phenoxyacetyl)thiourea]
[1]
  IC50: < 10 nM
[2]; 50 ng/ml h-SCF
  IC50: 523 nM

## CCCCCCCCCCCCCCCCCCOC(=O)Nc1cc(C)c(Oc2ccnc3cc(OC)c(OC)cc23)cc1C [Example 327, Octadecyl N-{4-[(6,7-dimethoxy-4-quinolyl)oxy]-2,5-dimethylphenyl}carbamate]
[1]; figure in parentheses in >100( )
  inhibition at 0.1 µM: 30%
[1]; Pharmacological Test Example 1
  IC50: > 100 nM
[2]; figure in parentheses in −( )
  inhibition at 1 µM: 6%

## COc1cc2nccc(Oc3ccc(NC(=O)OCc4cccc(C)c4)c(C)c3C)c2cc1OC [Example 233, 3-Methylbenzyl N-{4-[(6,7-dimethoxy-4-quinolyl)oxy]-2,3-dimethylphenyl}carbamate]
[1]; Pharmacological Test Example 1
  IC50: 8 nM
[2]; h-SCF 50 ng/ml
  IC50: 52 nM

From patent publication US7135466B2 (Kirin Beer Kabushiki Kaisha, priority 1999, dated 2006)
